Test results taken from patent US20230122776A1, “ANTIVIRAL AGENT” (priority 2020, published 2023).
Where “and” joins values, the source holds several entries; their conditions need not be identical. Equal values may be shown once. Read-outs that look alike come from different tables or passages of the source.

Legend:
[1] = tested on: SARS-CoV-2; format: in vivo
[2] = tested on: SARS-CoV-2; format: in vivo; details: 4 close contacts; inhaled taurolidine 0.5% 3 times or twice a day for 7 days
[3] = target: blood coagulation factor X (Homo sapiens, UniProt P00742); details: from Reinmüller, Zentralblatt Chirurgie 124 (1999); cited from earlier work
Chain of blood coagulation factor X (P00742 41-488): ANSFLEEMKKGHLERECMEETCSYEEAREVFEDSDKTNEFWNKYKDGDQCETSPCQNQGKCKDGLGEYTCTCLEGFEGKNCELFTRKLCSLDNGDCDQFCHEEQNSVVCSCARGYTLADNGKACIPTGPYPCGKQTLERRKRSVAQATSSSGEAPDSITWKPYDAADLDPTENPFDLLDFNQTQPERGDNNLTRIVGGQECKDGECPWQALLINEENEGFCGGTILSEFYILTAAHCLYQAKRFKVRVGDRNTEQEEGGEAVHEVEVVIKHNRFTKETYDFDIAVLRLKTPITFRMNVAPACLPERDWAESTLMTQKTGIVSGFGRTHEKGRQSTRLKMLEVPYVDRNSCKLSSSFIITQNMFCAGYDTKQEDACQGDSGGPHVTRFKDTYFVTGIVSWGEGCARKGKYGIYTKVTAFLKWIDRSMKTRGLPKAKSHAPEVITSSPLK

## O=S1(=O)CCN(CN2CCS(=O)(=O)NC2)CN1 [taurolidine]
[1]; SARS-CoV-2 positive (POCT) participant, inhaled taurolidine 0.5% three times a day
  time interval from the start of treatment to the easing of the symptoms: ≤ 48 h
[1]; in vivo
  time interval from the start of treatment to the easing of the symptoms: 96 h and 72 h
[2]
  POCT for SARS-CoV-2 under prophylaxis: remained negative
  disease symptoms under prophylaxis: remained symptom-free
[3]
  activity of the blood coagulation factor X: inhibits the activity
